Where “and” joins values, the source holds several entries; their conditions need not be identical. Identical values can stand only once. Toxic doses and inconclusive results are not listed. No stated cut-off is given here; in the data, active means T/C of 150% or more; inactive means T/C below 125%.
System: L1210 leukemia ip in BDF1 mice, survival T/C
Test: NCI In Vivo Anticancer Drug Screen. Data for tumor model L1210 Leukemia (intraperitoneal) in B6D2F1 (BDF1) mice
Conditions: endpoint: mean survival time, higher = longer survival
Method in brief: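 In this screen, tumor-bearing mice given compound are compared to those given vehicle, and their survival values are reported as a treated-to-control quotient.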

[1] = dose: 100.0 mg/kg/injection, schedule: Q01DX009 (ip), vehicle: saline with Tween-80
[2] = dose: 200.0 mg/kg/injection, schedule: Q01DX009 (ip), vehicle: saline with Tween-80
[3] = dose: 200.0 mg/kg/injection, schedule: Q04DX003 (ip), vehicle: Klucel (hydroxypropylcellulose) (HPC)
[4] = dose: 400.0 mg/kg/injection, schedule: Q01DX009 (ip), vehicle: saline with Tween-80
[5] = dose: 400.0 mg/kg/injection, schedule: Q04DX003 (ip), vehicle: Klucel (hydroxypropylcellulose) (HPC)
[6] = dose: 100.0 mg/kg/injection, schedule: Q01DX009 (ip), vehicle: Klucel (hydroxypropylcellulose) (HPC)
[7] = dose: 200.0 mg/kg/injection, schedule: Q01DX009 (ip), vehicle: Klucel (hydroxypropylcellulose) (HPC)
[8] = dose: 400.0 mg/kg/injection, schedule: Q01DX009 (ip), vehicle: Klucel (hydroxypropylcellulose) (HPC)
[9] = dose: 100.0 mg/kg/injection, schedule: Q01DX001 (ip), vehicle: saline
[10] = dose: 200.0 mg/kg/injection, schedule: Q01DX001 (ip), vehicle: saline

Measured: T/C

CCC(C)N(CCCOC(=O)c1ccc(N)cc1)C(C)CC (configuration not stated)
inactive: dose: 12.5 mg/kg/injection, schedule: Q01DX009 (ip), vehicle: saline 106 % of control | dose: 25.0 mg/kg/injection, schedule: Q01DX009 (ip), vehicle: saline 104 % of control | dose: 50.0 mg/kg/injection, schedule: Q01DX009 (ip), vehicle: saline 97 % of control

Nc1ccc(C(=O)Nc2ccc(Nc3ccncc3)cc2)c([N+](=O)[O-])c1
inactive: dose: 100.0 mg/kg/injection, schedule: Q01DX009 (ip), vehicle: saline 97 % of control | dose: 100.0 mg/kg/injection, schedule: Q04DX003 (ip), vehicle: saline 100 % of control | dose: 200.0 mg/kg/injection, schedule: Q01DX009 (ip), vehicle: saline 104 % of control | dose: 200.0 mg/kg/injection, schedule: Q04DX003 (ip), vehicle: saline 96 % of control | dose: 400.0 mg/kg/injection, schedule: Q01DX009 (ip), vehicle: saline 106 % of control | dose: 400.0 mg/kg/injection, schedule: Q04DX003 (ip), vehicle: saline 100 % of control

O=C(Nc1ccccc1Cl)Nc1ccccc1Br
inactive: dose: 100.0 mg/kg/injection, schedule: Q04DX002 (ip), vehicle: saline + alcohol 103 % of control | dose: 200.0 mg/kg/injection, schedule: Q04DX002 (ip), vehicle: saline + alcohol 96 % of control | dose: 400.0 mg/kg/injection, schedule: Q04DX002 (ip), vehicle: saline + alcohol 92 % of control

Cc1cc(C)c(NC(=S)NC(=O)c2ccco2)c(C)c1
inactive: [1] 97 % of control | dose: 100.0 mg/kg/injection, schedule: Q04DX003 (ip), vehicle: Klucel (hydroxypropylcellulose) (HPC) 98 % of control | [2] 93 % of control | [3] 96 % of control | [4] 95 % of control | [5] 102 % of control

ClC(c1ccccc1)C1(Br)C=c2ccccc2=C1 (configuration not stated)
inactive: [6] 97 % of control | [7] 97 % of control | [3] 105 % of control and 91 % of control | [5] 94 % of control and 103 % of control

CCOc1ccc(NC(=S)NC2CCCCC2)cc1
inactive: [6] 106 % of control | [7] 95 % of control | [8] 96 % of control

O=S(=O)(F)/C=C\c1ccccc1
inactive: dose: 25.0 mg/kg/injection, schedule: Q01DX009 (ip), vehicle: acetone 92 % of control | dose: 100.0 mg/kg/injection, schedule: Q01DX001 (ip), vehicle: acetone 95 % of control | dose: 200.0 mg/kg/injection, schedule: Q01DX001 (ip), vehicle: acetone 104 % of control

CCC[CH2][Sn]([Cl])([Cl])[CH2]CCC.c1ccncc1
inactive: dose: 3.0 mg/kg/injection, schedule: Q01DX009 (ip), vehicle: Klucel (hydroxypropylcellulose) (HPC) 93 % of control | dose: 6.0 mg/kg/injection, schedule: Q01DX009 (ip), vehicle: Klucel (hydroxypropylcellulose) (HPC) 107 % of control | dose: 12.0 mg/kg/injection, schedule: Q01DX009 (ip), vehicle: Klucel (hydroxypropylcellulose) (HPC) 92 % of control | dose: 12.5 mg/kg/injection, schedule: Q01DX009 (ip), vehicle: Klucel (hydroxypropylcellulose) (HPC) 87 % of control | dose: 12.5 mg/kg/injection, schedule: Q04DX002 (ip), vehicle: Klucel (hydroxypropylcellulose) (HPC) 91 % of control | dose: 25.0 mg/kg/injection, schedule: Q04DX002 (ip), vehicle: Klucel (hydroxypropylcellulose) (HPC) 106 % of control

O=C(/C=C/c1ccccc1)c1ccc(O)cc1O
inactive: dose: 50.0 mg/kg/injection, schedule: Q01DX001 (ip), vehicle: saline 97 % of control | [9] 95 % of control | [10] 97 % of control

CNC(=O)Oc1ccc(C(=O)OC)cc1
inactive: [9] 93 % of control | [10] 90 % of control | dose: 400.0 mg/kg/injection, schedule: Q01DX001 (ip), vehicle: saline 122 % of control

CSc1ccc(NC(=O)Sc2ccccc2C)cc1
inactive: dose: 75.0 mg/kg/injection, schedule: Q01DX001 (ip), vehicle: Klucel (hydroxypropylcellulose) (HPC) 95 % of control | dose: 75.0 mg/kg/injection, schedule: Q01DX009 (ip), vehicle: Klucel (hydroxypropylcellulose) (HPC) 93 % of control and 95 % of control | dose: 75.0 mg/kg/injection, schedule: Q04DX003 (ip), vehicle: Klucel (hydroxypropylcellulose) (HPC) 103 % of control | [6] 95 % of control and 103 % of control | dose: 100.0 mg/kg/injection, schedule: Q04DX002 (ip), vehicle: Klucel (hydroxypropylcellulose) (HPC) 98 % of control and 105 % of control | dose: 150.0 mg/kg/injection, schedule: Q01DX001 (ip), vehicle: Klucel (hydroxypropylcellulose) (HPC) 94 % of control | dose: 150.0 mg/kg/injection, schedule: Q01DX009 (ip), vehicle: Klucel (hydroxypropylcellulose) (HPC) 101 % of control | dose: 150.0 mg/kg/injection, schedule: Q04DX003 (ip), vehicle: Klucel (hydroxypropylcellulose) (HPC) 87 % of control | [7] 109 % of control | dose: 200.0 mg/kg/injection, schedule: Q04DX002 (ip), vehicle: Klucel (hydroxypropylcellulose) (HPC) 97 % of control | dose: 300.0 mg/kg/injection, schedule: Q01DX001 (ip), vehicle: Klucel (hydroxypropylcellulose) (HPC) 96 % of control | dose: 300.0 mg/kg/injection, schedule: Q01DX009 (ip), vehicle: Klucel (hydroxypropylcellulose) (HPC) 86 % of control and 88 % of control | dose: 300.0 mg/kg/injection, schedule: Q04DX003 (ip), vehicle: Klucel (hydroxypropylcellulose) (HPC) 91 % of control | dose: 400.0 mg/kg/injection, schedule: Q04DX002 (ip), vehicle: Klucel (hydroxypropylcellulose) (HPC) 93 % of control and 94 % of control

OC12CCCCC13CCC1CCCCC1(O2)O3 (configuration not stated)
inactive: [1] 98 % of control | [2] 94 % of control | [4] 102 % of control

O=C1NC(=O)C(c2cccs2)(c2cccs2)N1
inactive: dose: 25.0 mg/kg/injection, schedule: Q01DX009 (ip), vehicle: water 98 % of control | dose: 50.0 mg/kg/injection, schedule: Q01DX009 (ip), vehicle: water 102 % of control | dose: 100.0 mg/kg/injection, schedule: Q01DX009 (ip), vehicle: water 98 % of control | dose: 100.0 mg/kg/injection, schedule: Q04DX003 (ip), vehicle: water 106 % of control | dose: 200.0 mg/kg/injection, schedule: Q01DX009 (ip), vehicle: water 91 % of control | dose: 200.0 mg/kg/injection, schedule: Q04DX003 (ip), vehicle: water 112 % of control | dose: 300.0 mg/kg/injection, schedule: Q01DX009 (ip), vehicle: water 90 % of control

CC1(CC(=O)NN)OCCO1
inactive: dose: 100.0 mg/kg/injection, schedule: Q01DX001 (ip), vehicle: Klucel (hydroxypropylcellulose) (HPC) 104 % of control | dose: 200.0 mg/kg/injection, schedule: Q01DX001 (ip), vehicle: Klucel (hydroxypropylcellulose) (HPC) 102 % of control | dose: 400.0 mg/kg/injection, schedule: Q01DX001 (ip), vehicle: Klucel (hydroxypropylcellulose) (HPC) 107 % of control

O=C(Cl)c1cccc2c([N+](=O)[O-])cccc12
inactive: dose: 22.0 mg/kg/injection, schedule: Q01DX001 (ip), vehicle: other 96 % of control and 100 % of control | dose: 33.0 mg/kg/injection, schedule: Q01DX001 (ip), vehicle: other 103 % of control and 105 % of control | dose: 75.0 mg/kg/injection, schedule: Q01DX001 (ip), vehicle: other 103 % of control and 107 % of control | dose: 100.0 mg/kg/injection, schedule: Q01DX001 (ip), vehicle: other 97 % of control | dose: 200.0 mg/kg/injection, schedule: Q01DX001 (ip), vehicle: other 101 % of control | dose: 400.0 mg/kg/injection, schedule: Q01DX001 (ip), vehicle: other 106 % of control

CCCCCC[CH2][Sn]([CH2]CCCCCC)([CH2]CCCCCC)[CH2]CCCCCC
inactive: [6] 103 % of control | [7] 101 % of control | [8] 101 % of control

CC1(C)CN(Cc2ccccc2)C(C)(C)CN1
inactive: dose: 0.19 mg/kg/injection, schedule: Q01DX009 (ip), vehicle: saline with Tween-80 93 % of control | dose: 0.39 mg/kg/injection, schedule: Q01DX009 (ip), vehicle: saline with Tween-80 100 % of control | dose: 0.78 mg/kg/injection, schedule: Q01DX009 (ip), vehicle: saline with Tween-80 106 % of control | dose: 1.56 mg/kg/injection, schedule: Q01DX009 (ip), vehicle: saline with Tween-80 101 % of control | dose: 12.5 mg/kg/injection, schedule: Q04DX003 (ip), vehicle: saline with Tween-80 92 % of control | dose: 25.0 mg/kg/injection, schedule: Q04DX003 (ip), vehicle: saline with Tween-80 103 % of control
